Assay results: US20260285888A1, “HETEROCYCLIC COMPOUND AND USE THEREOF” (OTSUKA PHARMACEUTICAL CO., LTD., priority 2023, published 2026)

How the values were obtained:
[1] = Study for confirmation of conversion to brexpiprazole in a buffer (stability of the evaluation compounds); type: physicochemical; conditions: in buffer, average of duplicate; for Concentration of brexpiprazole formed: 60-minute reaction sample; for Concentration of evaluation compound decreased: decrease in 60-minute vs 0-minute reaction sample
Method: The conversion from the evaluation compounds to brexpiprazole in a buffer (i.e., the stability of the evaluation compounds) was evaluated.
The Example 1 compound was dissolved in acetonitrile/water (1:1, v/v) to 10 mmol/L and further diluted with acetonitrile/water (1:1, v/v) to 100 μmol/L for use.
The other Example compounds and the Reference Example 5 compound to Reference Example 7 compound were each dissolved in DMSO to 10 mmol/L and further diluted with acetonitrile to 100 μmol/L for use, except for the following compounds.
The compounds of Examples 52, 95, 96, 117, and 130 (EX 52, EX 95, EX 96, EX 117, and EX 130) were dissolved in acetonitrile/water (8:2, v/v) to 10 mmol/L and further diluted with acetonitrile to 100 μmol/L for use.
The compound of Example 97 (EX 97) was dissolved in acetonitrile/water (8:2, v/v) to 10 mmol/L and further diluted with acetonitrile/water (8:2, v/v) to 100 μmol/L for use.
The compounds of Examples 15 and 116 (EX 15 and EX 116) were dissolved in DMSO to 1 mmol/L and further diluted with acetonitrile to 100 μmol/L for use.
The reaction was conducted by preparing each reaction solution such that the final concentration of each component was as follows. The test was conducted in duplicate.
For the compounds of Examples 1 to 8, 10 to 19, 26 to 27, 37, 50, 87 to 89, 91, 116, 121, 123, 150, and 151 (EX 1 to EX 8, EX 10 to EX 19, EX 26 to EX 27, EX 37, EX 50, EX 87 to EX 89, EX 91, EX 116, EX 121, EX 123, EX 150, and EX 151), and the compounds of Reference Examples 5 to 7 (REX 5 to REX 7), the reaction solution without the evaluation compound (198 μl) was pre-incubated at 37° C. for 3 minutes, and then each of the evaluation compound solutions (2 μl) was added and stirred; thereafter, the reaction was started at 37° C. At 0 minutes or 60 minutes after the start of the reaction, the reaction was stopped by adding and stirring a reaction stop solution (1000 μl) composed of acetonitrile/isopropanol (4:1, v/v) containing internal standard substances. However, the 0-minute reaction sample (198 μl) was prepared by adding the evaluation compound (2 μl) after adding the reaction stop solution (1000 μl). The samples after stopping the reaction were used as the measurement samples. Calibration curve samples with the same composition were prepared (final concentrations of the evaluation compounds and brexpiprazole: 0.01, 0.1, and 1 μmol/L, with the proviso that for the evaluation compounds only, the 0-minute reaction samples were also used as calibration curve samples for 1 μmol/L).
For the compounds of Examples 24 to 25, 28 to 29, 32 to 36, 40 to 49, 51 to 60, 62 to 64, 66 to 77, 80 to 86, 90, 92 to 111, 113, 115, 117 to 120, 122, 124 to 130, 132 to 147, and 152 to 160 (EX 24 to EX 25, EX 28 to EX 29, EX 32 to EX 36, EX 40 to EX 49, EX 51 to EX 60, EX 62 to EX 64, EX 66 to EX 77, EX 80 to EX 86, EX 90, EX 92 to EX 111, EX 113, EX 115, EX 117 to EX 120, EX 122, EX 124 to EX 130, EX 132 to EX 147, and EX 152 to EX 160), the reaction solution without the evaluation compound (148.5 μl) was pre-incubated at 37° C. for 3 minutes, and then each of the evaluation compound solutions (1.5 μl) was added and stirred; thereafter, the reaction was started at 37° C. At 0 minutes or 60 minutes after the start of the reaction, the reaction was stopped by adding and stirring a reaction stop solution (600 μl) composed of acetonitrile/isopropanol (4:1, v/v) containing internal standard substances. However, the 0-minute reaction sample (148.5 μl) was prepared by adding the evaluation compound (1.5 μl) after adding the reaction stop solution (600 μl). The samples after stopping the reaction were used as the measurement samples. Calibration curve samples with the same composition were prepared (final concentrations of the evaluation compounds and brexpiprazole: 0.01, 0.1, and 1 μmol/L, with the proviso that for the evaluation compounds only, the 0-minute reaction samples were also used as calibration curve samples for 1 μmol/L). […]

in vitro = type: cell-based, human; conditions: human, differentiated hl-60 cells, 300 μmol/L, about 24 hours, PMA-differentiated HL-60 cells, LDH; no-treatment 0%, cell lysis buffer 100%; read-out: cytotoxicity (%) Evaluation compound results
Method: An HL-60 cell line (human acute promyelocytic leukemia cells) was successively cultured in RPMI 1640 containing 20% fetal bovine serum (FBS) at 37° C. in 95% atmosphere/5% CO2. Before evaluation, the cells were pre-cultured for about 72 hours in the presence of 10 nM phorbol 12-myristate 13-acetate (PMA) to induce macrophage-like differentiation.
Evaluation compounds were dissolved in DMSO to obtain 30 mmol/L solutions (or suspensions). Each DMSO solution was diluted 100-fold with RPMI 1640 containing 2% FBS (final concentration of the compound: 300 μmol/L) to obtain a treatment solution. The culture supernatant of the differentiated HL-60 cells was removed, and each treatment solution was added and cultured for about 24 hours, followed by cytotoxicity evaluation.
The activity of lactate dehydrogenase (LDH) was measured in the treatment solutions exposed to the cells for about 24 hours by using a commercial kit (Cytotoxicity LDH Assay Kit-WST, Dojindo Laboratories) and a plate reader (Tecan Infinite M1000). The obtained measurement values were used to calculate cytotoxicity (%) as comparison values for each evaluation compound-treated group, with the no-treatment group taken as 0% and the cell lysis buffer-treated group taken as 100%. The test was conducted in triplicate in three wells each, and the average values were used as adopted values.

| SMILES | Concentration of brexpiprazole formed [1] [nM] | Concentration of evaluation compound decreased [1] [nM] | cytotoxicity at 24 h, 300 µM (in vitro) [%] |
| --- | --- | --- | --- |
| CCOCCOCCOCCOC(=O)OCOP(=O)([O-])OC[N+]1(CCCCOc2ccc3ccc(=O)[nH]c3c2)CCN(c2cccc3sccc23)CC1 [EX 136, (4-(benzo[b]thiophen-4-yl)-1-(4-((2-oxo-1,2-dihydroquinolin-7-yl)oxy)butyl)piperazin-1-ium-1-yl)methyl (3-oxo-2,4,7,10,13-pentaoxapentadecyl) phosphate] | 0 | 0 | -9 |
| COCCOC(=O)CCCCCCCCCCC(=O)OCOP(=O)([O-])OC[N+]1(CCCCOc2ccc3ccc(=O)[nH]c3c2)CCN(c2cccc3sccc23)CC1 [EX 77, (4-(benzo[b]thiophen-4-yl)-1-(4-((2-oxo-1,2-dihydroquinolin-7-yl)oxy)butyl)piperazin-1-ium-1-yl)methyl (((12-(2-methoxyethoxy)-12-oxododecanoyl)oxy)methyl) phosphate] | 0 | 110 | 6 |
| CCOCCOCCOC(=O)OCOP(=O)([O-])OC[N+]1(CCCCOc2ccc3ccc(=O)[nH]c3c2)CCN(c2cccc3sccc23)CC1 [EX 134, (4-(benzo[b]thiophen-4-yl)-1-(4-((2-oxo-1,2-dihydroquinolin-7-yl)oxy)butyl)piperazin-1-ium-1-yl)methyl (3-oxo-2,4,7,10-tetraoxadodecyl) phosphate] | 0 | 70 | -7 |
| O=c1ccc2ccc(OCCCC[N+]3(COP(=O)([O-])OC/C=C/CO)CCN(c4cccc5sccc45)CC3)cc2[nH]1 [EX 42, (E)-(4-(benzo[b]thiophen-4-yl)-1-(4-((2-oxo-1,2-dihydroquinolin-7-yl)oxy)butyl)piperazin-1-ium-1-yl)methyl (4-hydroxybut-2-en-1-yl) phosphate] | 0 | 30 | 8 |
| CCCCOCCOCCOCCOC(=O)OCOP(=O)([O-])OC[N+]1(CCCCOc2ccc3ccc(=O)[nH]c3c2)CCN(c2cccc3sccc23)CC1 [EX 138, (4-(benzo[b]thiophen-4-yl)-1-(4-((2-oxo-1,2-dihydroquinolin-7-yl)oxy)butyl)piperazin-1-ium-1-yl)methyl (3-oxo-2,4,7,10,13-pentaoxaheptadecyl) phosphate] | 0 | 90 | -7 |
| CCOC(=O)[C@H](C)NP(=O)([O-])OC[N+]1(CCCCOc2ccc3ccc(=O)[nH]c3c2)CCN(c2cccc3sccc23)CC1 [EX 156, (4-(benzo[b]thiophen-4-yl)-1-(4-((2-oxo-1,2-dihydroquinolin-7-yl)oxy)butyl)piperazin-1-ium-1-yl)methyl (S)-(1-ethoxy-1-oxopropan-2-yl)phosphoramidate] | 0 | 170 | -9 |
| COCC1CCC(COP(=O)([O-])OC[N+]2(CCCCOc3ccc4ccc(=O)[nH]c4c3)CCN(c3cccc4sccc34)CC2)CC1 (stereo not drawn) [EX 54, (4-(benzo[b]thiophen-4-yl)-1-(4-((2-oxo-1,2-dihydroquinolin-7-yl)oxy)butyl)piperazin-1-ium-1-yl)methyl ((4-(methoxymethyl)cyclohexyl)methyl) phosphate] | 0 | 140 | -10 |
| COCCCCOP(=O)([O-])OC[N+]1(CCCCOc2ccc3ccc(=O)[nH]c3c2)CCN(c2cccc3sccc23)CC1 [EX 50, (4-(benzo[b]thiophen-4-yl)-1-(4-((2-oxo-1,2-dihydroquinolin-7-yl)oxy)butyl)piperazin-1-ium-1-yl)methyl (4-methoxybutyl) phosphate] | 0 | 10 | -8 |
| COCCOC(=O)OCOP(=O)([O-])OC[N+]1(CCCCOc2ccc3ccc(=O)[nH]c3c2)CCN(c2cccc3sccc23)CC1 [EX 33, (4-(benzo[b]thiophen-4-yl)-1-(4-((2-oxo-1,2-dihydroquinolin-7-yl)oxy)butyl)piperazin-1-ium-1-yl)methyl ((((2-methoxyethoxy)carbonyl)oxy)methyl) phosphate] | 0 | 0 | -7 |
| CCOC(=O)[C@@H](C)OP(=O)([O-])OC[N+]1(CCCCOc2ccc3ccc(=O)[nH]c3c2)CCN(c2cccc3sccc23)CC1 [EX 103, (R)-(4-(benzo[b]thiophen-4-yl)-1-(4-((2-oxo-1,2-dihydroquinolin-7-yl)oxy)butyl)piperazin-1-ium-1-yl)methyl(1-ethoxy-1-oxopropan-2-yl) phosphate] | 0 | -10 | 3 |
| COCCNP(=O)([O-])OC[N+]1(CCCCOc2ccc3ccc(=O)[nH]c3c2)CCN(c2cccc3sccc23)CC1 [EX 152, (4-(benzo[b]thiophen-4-yl)-1-(4-((2-oxo-1,2-dihydroquinolin-7-yl)oxy)butyl)piperazin-1-ium-1-yl)methyl (2-methoxyethyl)phosphoramidate] | 0 | 10 | -10 |
